Measured values published in US6918445B2, “Methods and compositions for treating subterranean zones using environmentally safe polymer breakers” (Halliburton Energy Services, Inc., priority 2003, dated 2005).

Test: Sodium perborate tetrahydrate solubility tests in fresh water
Type: physicochemical
Conditions: density 8.33 pounds per gallon, 75° F., with mixing; for Amount Dissolved (solubility of sodium perborate tetrahydrate in water): 10% by weight of water was a pass/fail target, not the maximum solubility
Procedure: Sodium perborate tetrahydrate solubility tests in fresh water having a density of 8.33 pounds per gallon were conducted. […] The sodium borate tetrahydrate-complex or ester forming compound mixtures all contained a molar ratio of sodium perborate tetrahydrate to the complex or ester forming compound of 1:2, and the mixtures were added to the water in amounts whereby the sodium perborate tetrahydrate was present in an amount of 10% by weight of the water.

O.O.O.O.[Na+].[O-]B1OO1 [Sodium Perborate Tetrahydrate]
Amount Dissolved (solubility of sodium perborate tetrahydrate in water): 2.5% by weight of water
Amount Dissolved (solubility of sodium perborate tetrahydrate in water) (listed as sodium perborate tetrahydrate): 2.5 % by weight of water
Time Required (time to dissolve the stated amount): <15 min
